The subject of the test is CD2F1 mice, L1210 leukemia ip, survival T/C. Briefly: NCI In Vivo Anticancer Drug Screen. Data for tumor model L1210 Leukemia (intraperitoneal) in CD2F1 (CDF1) mice. Conditions: higher = longer survival. Put shortly: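 Tumor-bearing mice (transplanted tumor) were split into treated and vehicle control groups, and the measured endpoint of each treated group was divided by that of its vehicle controls.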

The mark [1] stands for this setting: endpoint: mean survival time, dose: 50.0 mg/kg/injection, schedule: Q01DX009 (ip), vehicle: saline with Tween-80.
Setting [2] is: endpoint: mean survival time, dose: 100.0 mg/kg/injection, schedule: Q01DX009 (ip), vehicle: saline with Tween-80.
[3] abbreviates: endpoint: mean survival time, dose: 100.0 mg/kg/injection, schedule: Q01DX001 (ip), vehicle: saline.
Where [4] appears, read: endpoint: mean survival time, dose: 200.0 mg/kg/injection, schedule: Q01DX001 (ip), vehicle: saline.
[5] abbreviates: endpoint: mean survival time, dose: 400.0 mg/kg/injection, schedule: Q01DX001 (ip), vehicle: saline.
Setting [6] is: endpoint: mean survival time, dose: 100.0 mg/kg/injection, schedule: Q04DX002 (ip), vehicle: saline with Tween-80.
The mark [7] stands for this setting: endpoint: mean survival time, dose: 200.0 mg/kg/injection, schedule: Q04DX002 (ip), vehicle: saline with Tween-80.
[8] abbreviates: endpoint: mean survival time, dose: 400.0 mg/kg/injection, schedule: Q04DX002 (ip), vehicle: saline with Tween-80.
Where [9] appears, read: endpoint: mean survival time, dose: 200.0 mg/kg/injection, schedule: Q01DX009 (ip), vehicle: saline with Tween-80.

Molecules are shown by their SMILES. Where “and” joins values, the source holds several entries; their conditions need not be identical. Identical values can stand only once. Toxic doses and inconclusive results are not listed.

In the case of `O=C1CC(c2ccccc2)C(c2ccccc2)N1Cc1ccccc1` (stereo not drawn), the T/C is 93 % of control (endpoint: mean survival time, dose: 100.0 mg/kg/injection, schedule: Q04DX003 (ip), vehicle: other); 93 % of control (endpoint: mean survival time, dose: 200.0 mg/kg/injection, schedule: Q04DX003 (ip), vehicle: other); 97 % of control (endpoint: mean survival time, dose: 400.0 mg/kg/injection, schedule: Q04DX003 (ip), vehicle: other).
Turning to `CCN(CC)CCCC(C)NCCCCNC(C)CCCN(CC)CC` (stereo not drawn), the T/C is 90 % of control (endpoint: mean survival time, dose: 12.5 mg/kg/injection, schedule: Q01DX009 (ip), vehicle: water) and 92 % of control (endpoint: mean survival time, dose: 25.0 mg/kg/injection, schedule: Q01DX009 (ip), vehicle: water).
Take `O=C1Cc2ccccc2O1`: the T/C by setting is: (endpoint: mean survival time, dose: 25.0 mg/kg/injection, schedule: Q01DX009 (ip), vehicle: saline) 93 % of control; (endpoint: mean survival time, dose: 50.0 mg/kg/injection, schedule: Q01DX009 (ip), vehicle: saline) 96 % of control; (endpoint: mean survival time, dose: 100.0 mg/kg/injection, schedule: Q01DX009 (ip), vehicle: saline) 100 % of control; (endpoint: mean survival time, dose: 200.0 mg/kg/injection, schedule: Q01DX009 (ip), vehicle: saline) 97 % of control.
`COc1cc(OC)c(NC(=O)Nc2cccc(SC)c2)cc1Cl`: the T/C reads like this: under setting [1], 92 % of control; under setting [2], 88 % of control.
In the case of `C[CH2][Sn]1([CH2]C)[O]C2C(CO)OC(n3ccc4c(N)ncnc43)C2[O]1` (stereo not drawn), the T/C is 110 % of control (endpoint: mean survival time, dose: 0.78 mg/kg/injection, schedule: Q01DX005 (ip), vehicle: other); 104 % of control (endpoint: mean survival time, dose: 1.56 mg/kg/injection, schedule: Q01DX005 (ip), vehicle: other); 117 % of control (endpoint: mean survival time, dose: 3.13 mg/kg/injection, schedule: Q01DX005 (ip), vehicle: other).
`COc1c2occc2c(OC)c2c(=O)cc(/C=C/c3ccccn3)oc12`: the T/C by setting is: under setting [3], 98 % of control; under setting [4], 101 % of control; under setting [5], 98 % of control.
Take `CC(O)CN=C(N)C(N)=NCC(C)O` (stereo not drawn): the T/C is, setting by setting: (endpoint: mean survival time, dose: 12.5 mg/kg/injection, schedule: Q04DX002 (ip), vehicle: saline with Tween-80) 108 % of control; (endpoint: mean survival time, dose: 25.0 mg/kg/injection, schedule: Q04DX002 (ip), vehicle: saline with Tween-80) 101 % of control; (endpoint: mean survival time, dose: 50.0 mg/kg/injection, schedule: Q04DX002 (ip), vehicle: saline with Tween-80) 97 % of control.
On to `CCCCOC(=O)c1n[nH]c(C)c1N=NN1CCOCC1`, for which the T/C by setting is: (endpoint: mean survival time, dose: 75.0 mg/kg/injection, schedule: Q01DX001 (ip), vehicle: other) 105 % of control; (endpoint: mean survival time, dose: 150.0 mg/kg/injection, schedule: Q01DX001 (ip), vehicle: other) 97 % of control; (endpoint: mean survival time, dose: 300.0 mg/kg/injection, schedule: Q01DX001 (ip), vehicle: other) 103 % of control.
With `O=C(O)CCCCCNCC(CNCCCCCC(=O)O)(C(=O)O)C(=O)O`, the T/C under setting [6] is 104 % of control, the T/C under setting [7] was 96 % of control and the T/C under setting [8] was 111 % of control.
`CC(C)=CCC/C(C)=C\COC(=N)C(Cl)(Cl)Cl`: the T/C reads like this: under setting [1], 88 % of control; under setting [2], 92 % of control; under setting [9], 92 % of control.
Regarding `CC(C)(C)OOC(=O)c1ccccn1`, the T/C under setting [6] is 95 % of control and the T/C under setting [7] is 95 % of control.
For `Clc1ccc2c(Cl)c3c(nc2c1)CCCC3`, the T/C under setting [3] is 100 % of control and the T/C under setting [4] is 100 % of control.
For the molecule `CC(=O)N/N=C1\CC2CCC1(C)C2(C)C` (stereo not drawn), the T/C is, setting by setting: under setting [3], 102 % of control; under setting [4], 102 % of control; under setting [5], 98 % of control.
Consider `CN(C)c1ccc(/C=N/NC(=O)CNC(=O)Nc2cccc(C(F)(F)F)c2)cc1`, for which the T/C is 96 % of control under setting [1], 92 % of control under setting [2] and 88 % of control under setting [9].
As for `CCNC(=O)C(=O)NCC`, the T/C is 103 % of control under setting [6], 100 % of control under setting [7] and 103 % of control under setting [8].
As to `CCCN(C)C(=O)N(CCCl)N=O`, the T/C runs as follows: (endpoint: mean survival time, dose: 39.0 mg/kg/injection, schedule: Q01DX001 (ip), vehicle: other) 306 % of control; (endpoint: mean survival time, dose: 62.5 mg/kg/injection, schedule: Q01DX001 (ip), vehicle: other) 197 % of control; (endpoint: mean survival time, dose: 78.0 mg/kg/injection, schedule: Q01DX001 (ip), vehicle: other) 448 % of control; (endpoint: mean survival time, dose: 125.0 mg/kg/injection, schedule: Q01DX001 (ip), vehicle: other) 320 % of control; (endpoint: mean survival time, dose: 250.0 mg/kg/injection, schedule: Q01DX001 (ip), vehicle: other) 102 % of control.
Take `COC12C(COC(N)=O)C3=C(C(=O)C(C)=C(N4CCN(C)CC4)C3=O)N1CC1NC12` (stereo not drawn): the T/C by setting is: (endpoint: median survival time, dose: 1.5 mg/kg/injection, schedule: Q01DX001 (ip), vehicle: water) 155 % of control; (endpoint: median survival time, dose: 3.0 mg/kg/injection, schedule: Q01DX001 (ip), vehicle: water) 124 % of control; (endpoint: median survival time, dose: 6.0 mg/kg/injection, schedule: Q01DX001 (ip), vehicle: water) 87 % of control; (endpoint: median survival time, dose: 375.0 micrograms/kg/injection, schedule: Q01DX001 (ip), vehicle: water) 102 % of control and 106 % of control; (endpoint: median survival time, dose: 750.0 micrograms/kg/injection, schedule: Q01DX001 (ip), vehicle: water) 90 % of control and 102 % of control; (endpoint: median survival time, dose: 1500.0 micrograms/kg/injection, schedule: Q01DX001 (ip), vehicle: water) 101 % of control and 106 % of control. The T/C is 94 % of control and 106 % of control (endpoint: median survival time, dose: 3000.0 micrograms/kg/injection, schedule: Q01DX001 (ip), vehicle: water); 102 % of control and 105 % of control (endpoint: median survival time, dose: 6000.0 micrograms/kg/injection, schedule: Q01DX001 (ip), vehicle: water).
In the case of `COC(=O)C1OC1(C)c1ccc(C)cc1` (stereo not drawn), the T/C was 89 % of control (endpoint: mean survival time, dose: 25.0 mg/kg/injection, schedule: Q01DX009 (ip), vehicle: saline with Tween-80); 94 % of control under setting [1]; 93 % of control under setting [2].
As for `O=C(CNC(=O)Nc1cccc([N+](=O)[O-])c1)N/N=C/c1c(O)ccc2ccccc12`, the T/C was 88 % of control under setting [1], 92 % of control under setting [2] and 95 % of control under setting [9].
For `C[CH2][Sn](/[CH]=C/C=C/OC)([CH2]C)[CH2]C`, the T/C (endpoint: mean survival time, dose: 0.04 mg/kg/injection, schedule: Q01DX009 (ip), vehicle: saline) was 101 % of control and the T/C (endpoint: mean survival time, dose: 0.09 mg/kg/injection, schedule: Q01DX009 (ip), vehicle: saline) was 101 % of control.
Take `CN(C)C=Nc1c(Cl)cccc1Cl`: the T/C is 100 % of control (endpoint: mean survival time, dose: 50.0 mg/kg/injection, schedule: Q01DX001 (ip), vehicle: saline); 103 % of control under setting [3]; 97 % of control under setting [4]; 106 % of control under setting [5].
Take `O=[N+]([O-])c1ccc(Cl)c(P(=O)(O)c2cc([N+](=O)[O-])ccc2Cl)c1`: the T/C is 100 % of control (endpoint: mean survival time, dose: 50.0 mg/kg/injection, schedule: Q04DX003 (ip), vehicle: saline); 101 % of control (endpoint: mean survival time, dose: 100.0 mg/kg/injection, schedule: Q04DX003 (ip), vehicle: saline); 100 % of control (endpoint: mean survival time, dose: 200.0 mg/kg/injection, schedule: Q04DX003 (ip), vehicle: saline).
Turning to `CC(=O)c1ccc(O)cc1O`, the T/C was 102 % of control and 98 % of control under setting [3]; 102 % of control and 98 % of control under setting [4]; 107 % of control and 104 % of control under setting [5].
Consider `COc1ccc2c(c1)CCC1C2CCC2(C)C(=O)OC(=O)C12` (stereo not drawn), for which the T/C is 101 % of control (endpoint: mean survival time, dose: 100.0 mg/kg/injection, schedule: Q04DX003 (sc), vehicle: steriod suspending solution); 95 % of control (endpoint: mean survival time, dose: 200.0 mg/kg/injection, schedule: Q04DX003 (sc), vehicle: steriod suspending solution); 98 % of control (endpoint: mean survival time, dose: 400.0 mg/kg/injection, schedule: Q04DX003 (sc), vehicle: steriod suspending solution).
Consider `CCC([NH-])(CC)C[NH-].[Cl][Pt+2][Cl]`, for which the T/C (endpoint: mean survival time, dose: 0.39 mg/kg/injection, schedule: Q04DX003 (ip), vehicle: saline with Tween-80) was 101 % of control; the T/C (endpoint: mean survival time, dose: 0.79 mg/kg/injection, schedule: Q04DX003 (ip), vehicle: saline with Tween-80) was 102 % of control; the T/C (endpoint: mean survival time, dose: 1.56 mg/kg/injection, schedule: Q04DX003 (ip), vehicle: saline with Tween-80) is 107 % of control; the T/C (endpoint: mean survival time, dose: 3.12 mg/kg/injection, schedule: Q04DX003 (ip), vehicle: saline with Tween-80) was 108 % of control; the T/C (endpoint: mean survival time, dose: 3.13 mg/kg/injection, schedule: Q04DX003 (ip), vehicle: saline) is 232 % of control; the T/C (endpoint: mean survival time, dose: 6.25 mg/kg/injection, schedule: Q04DX003 (ip), vehicle: saline) is 208 % of control. In addition, the T/C (endpoint: mean survival time, dose: 25.0 mg/kg/injection, schedule: Q04DX003 (ip), vehicle: saline with Tween-80) was 111 % of control.

The values above are taken from PubChem BioAssay AID256 (DTP/NCI, 2004).
